{"source": "the NIST ThermoML archive (doi:10.1016/j.jct.2018.11.013)", "note": "± gives the expanded uncertainty stated by the source.", "data": [{"assay": "Boiling temperature at pressure P", "conditions": "101.3 kPa; Liquid; Ebulliometric method (Recirculating still)", "units": {"Boiling temperature at pressure P": "°C"}, "values": [{"compound": "CCOCCO", "note": "[2-ethoxyethan-1-ol]", "Boiling temperature at pressure P": "135.04 ± 0.71"}, {"compound": "CC(C)O", "note": "[propan-2-ol]", "Boiling temperature at pressure P": "82.12 ± 0.71"}, {"compound": "CCCCOC(C)=O", "note": "[butyl ethanoate]", "Boiling temperature at pressure P": "126.11 ± 0.71"}, {"compound": "CC(C)OC(C)C", "note": "[diisopropyl ether]", "Boiling temperature at pressure P": "68.62 ± 0.71"}]}]}
